Laboratory results published in US20160120858A1 (ACADEMIA SINICA, priority 2014, published 2016).
Entries after “also recorded” stand apart in the source; their conditions may differ.

What was measured:
Shank2^−/− mice [1] = assay: Three-chamber social interaction assay, Shank2 mice; format: in vivo, mouse; settings: 30 mg/kg i.p., 2 hours prior to test
Excerpt: All mice were backcrossed into a C57BL/6 background, and housed and bred in a mouse vivarium at the Korea Advanced Institute of Science and Technology (KAIST, Shank2^−/−mice) and at Academia Sinica (Tbr1^+/− mice). Pups were kept with the dam until weaning at postnatal day 21. After weaning, animals were group housed in mixed-genotype groups of 3 to 5 mice per cages, and randomly subjected to electrophysiological and behavioral experiments. Animals at 3 to 5 weeks of age were used for electrophysiological experiments; male animals at 2 to 4 months of age were used for behavioral assays. For TFL-Zn staining, male animals at 8 weeks (for Shank2^−/−mice) were used. Wild-type littermates were used as controls.
The injection was performed 2 hours before (Shank2^−/− mice and wild-type littermates), or 3 hours before (Tbr1^+/− mice and wild-type littermates) behavioral assays at the discretion of the facility.
Testing was conducted in dedicated behavioral test rooms during the light phase (three-chamber test) and the dark phase (repetitive behaviors and open field test).
In short, the assay consisted of three phases of 10 minutes duration: habituation, social interaction (Stranger1 vs. Object), and social novelty recognition (Stranger 1 vs. Stranger 2). Exploration was defined as each instance in which wild-type or mutant mouse tries to sniff Object/Stranger, or orients its nose towards and come close to object/stranger. Individual movement tracks were analyzed by Ethovision 10.0 (Noldus) and modified by custom-designed software MatLab (Mathworks) to generate heat maps. Time spent in exploration was analyzed by the researcher who was blinded to the subject genotype (in Shank2 mice), or by using the Smart Video Tracking System (Panlab, in Tbr1 mice). In addition to exploration time, the preference index, which represents a numerical difference between time spent exploring the targets (Stranger1 vs. Object, or Stranger 2 vs. Stranger 1) divided by total time spent exploring both targets, as described previously.
Two hours after CQ treatment, the mice were subjected to a three-chamber social interaction test, which compares the preference of a mouse for a stranger mouse versus a novel inanimate object.

Shank2^−/− mice [2] = assay: Open field test; format: in vivo, mouse; settings: 30 mg/kg i.p.; for Locomotor activity (hyperactivity, excessive action) / Time spent in the center region (anxiety-like behavior): 30 mg/kg
Description: The injection was performed 2 hours before (Shank2^−/− mice and wild-type littermates), or 3 hours before (Tbr1^+/− mice and wild-type littermates) behavioral assays at the discretion of the facility. A within-subjects design was designed with a one week washout period (FIG. 8), and divided animals into two groups, vehicle-first and clioquinol-first group, to rule out carryover effects. Each mouse received a single acute dose of vehicle or clioquinol, and underwent a single behavioral task, one task per week. Testing was conducted in dedicated behavioral test rooms during the light phase (three-chamber test) and the dark phase (repetitive behaviors and open field test). The size of the open field box was 40×40×40 cm, and the center zone line was 13.3 cm apart from the edge. Mice were placed in the center in the beginning of the test, and mouse movements were recorded with a video camera for 60 minutes, and analyzed by Ethovision 10.0 (Noldus).

AMPAR = assay: AMPA-fEPSPs, input-output and paired pulse ratio, hippocampal slices; format: cell-based, mouse; settings: 4 uM; for AMPA-fEPSPs: WT and KO; for Input-output relationship (AMPA-fEPSP slopes against fiber volley): WT and Shank2^−/− SC-CA1 synapses
Description: For electrophysiological experiments, sagittal hippocampal slices (400 uM thick for extracellular, 300 uM thick for intracellular recordings) of Shank2^-/- mice (or ZnT3^-/- mice) and their wild-type littermates were prepared using a vibratome (Leica VT1200) in ice-cold dissection buffer containing (in mM) 212 sucrose, 25 NaHCO3, 5 KCl, 1.25 NaH2PO4, 0.5 CaCl2, 3.5 MgSO4, 10 D-glucose, 1.25 L-ascorbic acid, and 2 Na-pyruvate bubbled with 95% 02/5% CO2. CA3 was removed to prevent epileptiform activity. Slices were restored for 1 hour in 32° C. in a normal artificial CSF (ACSF) (In units of mM: 124 NaCl, 2.5 kCl, 1 NaH2PO4, 25 NaHCO3, 10 glucose, 2 CaC12, 2 Mg504 oxidized by 95% 02/5% CO2) For the recording, a single slice was moved to and maintained in submerged-type chamber at 28° C., continuously perfused with ACSF (2 mL/minute) saturated with 95% 02/5% CO2. Stimulation and recording pipettes were pulled from borosilicate glass capillaries (Harvard Apparatus) using a micropipette electrode puller ([…]). For extracellular recordings, mouse hippocampal slices at the age of postnatal day 21 to 35 were used. Field excitatory postsynaptic potentials (fEPSPs) were recorded in the stratum radiatum of the hippocampal CA1 region using pipettes filled with ACSF (1 MΩ). fEPSP was amplified (Multiclamp 700B, Molecular Devices), and digitized (Digidata 1440A, Molecular Devices) for measurements. The Schaffer collateral pathway was stimulated every 20 seconds with pipettes filled with ACSF (0.3 to 0.5 MΩ). The stimulation intensity was adjusted to yield a half-maximal response, and three successive responses were averaged and expressed relative to the normalized baseline. To induce LTP, high frequency stimulation (100 Hz, 1 s) was applied after a stable baseline was acquired.

**Q.** How did the Social novelty recognition (Shank2^−/− mice [1]; Shank2^−/− (KO) mice) turn out when `Oc1c(I)cc(Cl)c2cccnc12` [clioquinol, 5-Chloro-7-Iodo-8-Hydroxyquinoline] was run?
**A.** Its Social novelty recognition is “had no effect on social novelty recognition; also recorded: did not affect the social novelty recognition”.

**Q.** What about the Social novelty recognition (Shank2^−/− mice [1]; Shank2^−/− (KO) mice, listed as Clioquinol) of the same molecule?
**A.** The Social novelty recognition was “has no effect on social novelty recognition”.

**Q.** And the Social novelty recognition (Shank2^−/− mice [1]; wild-type (WT) mice)?
**A.** Its Social novelty recognition is “had no effect on social novelty recognition; also recorded: did not affect the social novelty recognition”.

**Q.** And the Social novelty recognition (Shank2^−/− mice [1]; wild-type (WT) mice, listed as Clioquinol)?
**A.** Its Social novelty recognition is “has no effect”.

**Q.** What about the “Locomotor activity (hyperactivity, excessive action)” value (Shank2^−/− mice [2]; Shank2^−/− mice) of the same molecule?
**A.** The value was “did not weaken”.

**Q.** What about the “Time spent in the center region (anxiety-like behavior)” value (shortened to “Time spent in the center region”) (Shank2^−/− mice [2]; Shank2^−/− mice) of the same molecule?
**A.** The value was “had no effect on the center-region time”.

**Q.** And the “Time spent in the center region” value (Shank2^−/− mice [2]; Shank2^−/− mice, listed as CQ)?
**A.** The value was “has no effect on the time spent in the center region”.

**Q.** And the “Locomotor activity (hyperactivity, excessive action)” value (Shank2^−/− mice [2]; Shank2^−/− mice, listed as Clioquinol)?
**A.** The value was “did not improve excessive action”.

**Q.** And the Locomotor behavior (Shank2^−/− mice [2]; wild-type mice)?
**A.** The Locomotor behavior was “had no effect”.

**Q.** And the “Time spent in the center region” value (Shank2^−/− mice [2]; wild-type mice, listed as CQ)?
**A.** The value was “has no effect on the time spent in the center region”.

**Q.** And the “Time spent in the center region” value (Shank2^−/− mice [2]; wild-type mice, listed as Clioquinol)?
**A.** Its value is “had no effect”.

**Q.** And the AMPA-fEPSPs (AMPAR)?
**A.** Its AMPA-fEPSPs is “not affected”.

**Q.** And the AMPA-fEPSPs (AMPAR; listed as CQ)?
**A.** Its AMPA-fEPSPs is “has no effect on AMPA-fEPSPs”.

**Q.** And the “Input-output relationship (AMPA-fEPSP slopes against fiber volley)” value (AMPAR)?
**A.** Its value is “had no effect”.

**Q.** And the “Input-output relationship (AMPA-fEPSP slopes against fiber volley)” value (AMPAR; listed as CQ)?
**A.** Its value is “has no effect on the input-output relationship”.
